# Results from US11771709B2, “ALK protein degradation agent and anti-tumor application thereof” (ShanghaiTech University, priority 2017, dated 2023).
# How the values were obtained:
# Format in all cases: cell-based
# SR (NPM-ALK) cells = assay: Growth inhibition IC50 in ALCL SR cells (CCK8/WST, 72 hours); conditions: SR cells, WST
# [1] = molecular target: T1, ALK protein in SR (NPM-ALK) cells (Homo sapiens, UniProt Q9UM73); assay: Western blot of ALK protein level (degradation, DC50), ALK phosphorylation and downstream signaling in SR cells; conditions: for DC50 (nM) in SR / DC50: ALK protein degradation in SR cells
# T1 construct: NPM (nucleophosmin, NPM1, P06748) fusion partner; host or cells: SR (ALCL) cells; the other entry of the earlier key: NPM1 (P06748, Nucleophosmin)
# [2] = molecular target: T2, ALK protein in H3122 (EML4-ALK) cells (Homo sapiens, UniProt Q9UM73); assay: Western blot of ALK protein level (degradation, DC50), ALK phosphorylation and downstream signaling in H3122 cells; conditions: ALK protein degradation in H3122 cells
# T2 construct: EML4 (Echinoderm microtubule-associated protein-like 4, Q9HC35) fusion partner, variant 1; host or cells: NCI-H3122 lung adenocarcinoma cells; the other entry of the earlier key: EML4 (Q9HC35, Echinoderm microtubule-associated protein-like 4)
# [3] = 72 h, Brigatinib-based PROTAD molecules (Table 3)
# [4] = Alectinib based ALK PROTAD compounds (Table 4)
# T2 sequence (Q9UM73 with tags, fused parts or gaps): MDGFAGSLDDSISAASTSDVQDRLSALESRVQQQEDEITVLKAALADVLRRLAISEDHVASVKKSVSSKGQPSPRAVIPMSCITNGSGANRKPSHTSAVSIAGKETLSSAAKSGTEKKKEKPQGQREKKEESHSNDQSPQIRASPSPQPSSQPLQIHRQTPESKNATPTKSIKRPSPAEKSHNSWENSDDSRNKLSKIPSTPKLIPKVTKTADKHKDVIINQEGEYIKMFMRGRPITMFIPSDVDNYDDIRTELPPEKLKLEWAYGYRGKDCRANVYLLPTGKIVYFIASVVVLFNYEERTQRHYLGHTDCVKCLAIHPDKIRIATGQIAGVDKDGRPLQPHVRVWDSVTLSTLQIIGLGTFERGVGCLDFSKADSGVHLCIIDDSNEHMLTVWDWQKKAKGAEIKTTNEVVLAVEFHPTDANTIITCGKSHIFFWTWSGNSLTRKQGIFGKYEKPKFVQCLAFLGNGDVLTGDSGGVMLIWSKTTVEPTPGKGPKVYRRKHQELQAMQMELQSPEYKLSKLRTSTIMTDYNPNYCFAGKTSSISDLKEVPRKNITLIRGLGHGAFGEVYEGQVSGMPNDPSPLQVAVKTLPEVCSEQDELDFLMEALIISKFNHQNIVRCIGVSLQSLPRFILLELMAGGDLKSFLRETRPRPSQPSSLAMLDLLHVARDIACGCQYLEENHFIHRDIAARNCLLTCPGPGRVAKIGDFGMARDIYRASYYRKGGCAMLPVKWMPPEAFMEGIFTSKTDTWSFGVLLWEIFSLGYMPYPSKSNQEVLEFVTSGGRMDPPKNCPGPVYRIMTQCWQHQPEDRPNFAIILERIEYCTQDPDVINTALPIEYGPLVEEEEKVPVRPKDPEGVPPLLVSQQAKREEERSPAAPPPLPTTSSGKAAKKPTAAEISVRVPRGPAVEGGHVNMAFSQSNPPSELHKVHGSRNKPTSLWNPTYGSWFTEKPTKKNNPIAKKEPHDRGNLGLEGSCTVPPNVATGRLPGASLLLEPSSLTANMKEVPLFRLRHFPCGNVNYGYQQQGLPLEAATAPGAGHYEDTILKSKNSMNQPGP
# T1 sequence (Q9UM73 with tags, fused parts or gaps): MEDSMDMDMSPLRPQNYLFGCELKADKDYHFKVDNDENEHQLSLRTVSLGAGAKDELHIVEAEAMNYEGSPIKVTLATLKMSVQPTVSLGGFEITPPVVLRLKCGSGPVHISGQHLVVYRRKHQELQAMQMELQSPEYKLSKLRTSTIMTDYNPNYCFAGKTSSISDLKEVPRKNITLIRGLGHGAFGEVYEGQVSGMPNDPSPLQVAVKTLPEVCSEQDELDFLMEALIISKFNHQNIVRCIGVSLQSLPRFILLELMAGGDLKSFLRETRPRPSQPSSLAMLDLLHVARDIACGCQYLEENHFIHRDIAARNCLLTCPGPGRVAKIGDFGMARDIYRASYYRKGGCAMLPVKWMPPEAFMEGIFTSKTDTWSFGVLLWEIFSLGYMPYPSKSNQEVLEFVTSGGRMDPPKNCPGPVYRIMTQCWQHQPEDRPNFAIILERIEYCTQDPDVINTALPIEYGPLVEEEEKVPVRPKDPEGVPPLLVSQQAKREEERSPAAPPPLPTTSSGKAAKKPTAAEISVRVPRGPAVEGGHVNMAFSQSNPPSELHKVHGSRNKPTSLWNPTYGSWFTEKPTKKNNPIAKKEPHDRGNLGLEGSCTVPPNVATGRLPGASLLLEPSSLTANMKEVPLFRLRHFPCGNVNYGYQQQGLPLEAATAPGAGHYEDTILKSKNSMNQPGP
DC50 (nM) in SR [1],DC50 (nM)) in H3122 [2],"ALK protein degradation ([1]; SR cells, western blot, 16 hours, up to 500 nM)",DC50 [1],DC50 [2],"concentration at which ALK proteins were degraded ([1]; SR cells, western blot)",Compound,IC50 (SR (NPM-ALK) cells; [3]),IC50 (SR (NPM-ALK) cells; [4])
Not degrade,Not degrade,–,–,–,–,"COc1cc(N2CCC(N)CC2)ccc1Nc1ncc(Cl)c(Nc2ccccc2P(C)(C)=O)n1 [Brigatinib Analogue B(SIAIS151101), (2-((2-((4-(4-aminopiperidin-1-yl)-2-methoxyphenyl)amino)-5-chloropyrimidin-4-yl)amino)phenyl)dimethylphosphine oxide]",1.7 ± 1.4 nM,–
Not degrade,Not degrade,did not degrade ALK protein,–,–,–,"COc1cc(N2CCC(N3CCNCC3)CC2)ccc1Nc1ncc(Cl)c(Nc2ccccc2P(C)(C)=O)n1 [Brigatinib Analogue C(SIAIS164005), (2-((5-chloro-2-((2-methoxy-4-(4-(piperazin-1-yl)piperidin-1-yl)phenyl)amino)pyrimidin-4-yl)amino)phenyl)dimethylphosphine oxide]",6.7 ± 3.1 nM,–
–,–,–,0.1 to 2 nM,1 to 50 nM,–,"COc1cc(N2CCC(NC(=O)CCCCCCNc3cccc4c3C(=O)N(C3CCC(=O)NC3=O)C4=O)CC2)ccc1Nc1ncc(Cl)c(Nc2ccccc2P(C)(C)=O)n1 (centres unmarked) [SIAIS151123, N-(1-(4-((5-chloro-4-((2-(dimethylphosphoryl)phenyl)amino)pyrimidin-2-yl)amino)-3-methoxyphenyl)piperidin-4-yl)-7-((2-(2,6-dioxopiperidin-3-yl)-1,3-dioxoisoindolin-4-yl)amino)heptanamide]",1.9 ± 1.5 nM,–
–,–,–,1 to 10 nM,1 to 10 nM,1 nM,"COc1cc(N2CCC(N3CCN(C(=O)CCOCCOCCOCCNc4cccc5c4C(=O)N(C4CCC(=O)NC4=O)C5=O)CC3)CC2)ccc1Nc1ncc(Cl)c(Nc2ccccc2P(C)(C)=O)n1 (centres unmarked) [SIAIS164009, 4-((2-(2-(2-(3-(4-(1-(4-((5-chloro-4-((2-(dimethylphosphoryl)phenyl)amino)pyrimidin-2-yl)amino)-3-methoxyphenyl)piperidin-4-yl)piperazin-1-yl)-3-oxopropoxy)ethoxy)ethoxy)ethyl)amino)-2-(2,6-dioxopiperidin-3-yl)isoindoline-1,3-dione]",5.3 ± 1.7 nM,–
–,–,–,1 to 50 nM,1 to 50 nM,–,"CCc1cc2c(cc1N1CCN(C(=O)CCOCCOCCNc3cccc4c3C(=O)N(C3CCC(=O)NC3=O)C4=O)CC1)C(C)(C)c1[nH]c3cc(C#N)ccc3c1C2=O (centres unmarked) [SIAIS164012, 8-(4-(3-(2-(2-((2-(2,6-dioxopiperidin-3-yl)-1,3-dioxoisoindolin-4-yl)amino)ethoxy)ethoxy)propanoyl)piperazin-1-yl)-9-ethyl-6,6-dimethyl-11-oxo-6,11-dihydro-5H-benzo[b]carbazole-3-carbonitrile]",–,48.9 nM
–,–,–,1 to 10 nM,1 to 10 nM,–,"COc1cc(N2CCC(N3CCN(C(=O)CCOCCOCCOCCOCCNc4cccc5c4C(=O)N(C4CCC(=O)NC4=O)C5=O)CC3)CC2)ccc1Nc1ncc(Cl)c(Nc2ccccc2P(C)(C)=O)n1 (centres unmarked) [SIAIS164016, 4-((15-(4-(1-(4-((5-chloro-4-((2-(dimethylphosphoryl)phenyl)amino)pyrimidin-2-yl)amino)-3-methoxyphenyl)piperidin-4-yl)piperazin-1-yl)-15-oxo-3,6,9,12-tetraoxapentadecyl)amino)-2-(2,6-dioxopiperidin-3-yl)isoindoline-1,3-dione]",11.2 ± 6.8 nM,–
–,0.02 to 20 nM,–,100 to 500 nM,–,–,"COc1cc(N2CCC(N3CCN(C(=O)CCOCCOCCOCCOCCOCCNc4cccc5c4C(=O)N(C4CCC(=O)NC4=O)C5=O)CC3)CC2)ccc1Nc1ncc(Cl)c(Nc2ccccc2P(C)(C)=O)n1 (stereo not drawn) [SIAIS164017, 4-((18-(4-(1-(4-((5-chloro-4-((2-(dimethylphosphoryl)phenyl)amino)pyrimidin-2-yl)amino)-3-methoxyphenyl)piperidin-4-yl)piperazin-l-yl)-18-oxo-3,6,9,12,15-pentaoxaoctadecyl)amino)-2-(2,6-dioxopiperidin-3-yl)isoindoline-1,3-dione]",14 ± 8.6 nM,–
–,–,–,1 to 10 nM,10 to 20 nM,–,"COc1cc(N2CCC(N3CCN(C(=O)CCNc4cccc5c4C(=O)N(C4CCC(=O)NC4=O)C5=O)CC3)CC2)ccc1Nc1ncc(Cl)c(Nc2ccccc2P(C)(C)=O)n1 (centres unmarked) [SIAIS164019, 4-((3-(4-(1-(4-((5-chloro-4-((2-(dimethylphosphoryl)phenyl)amino)pyrimidin-2-yl)amino)-3-methoxyphenyl)piperidin-4-yl)piperazin-1-yl)-3-oxopropyl)amino)-2-(2,6-dioxopiperidin-3-yl)isoindoline-1,3-dione]",9.6 ± 8 nM,–
–,–,–,0.5 to 10 nM,1 to 50 nM,–,"COc1cc(N2CCC(N3CCN(C(=O)CCCNc4cccc5c4C(=O)N(C4CCC(=O)NC4=O)C5=O)CC3)CC2)ccc1Nc1ncc(Cl)c(Nc2ccccc2P(C)(C)=O)n1 (centres unmarked) [SIAIS164020, 4-((4-(4-(1-(4-((5-chloro-4-((2-(dimethylphosphoryl)phenyl)amino)pyrimidin-2-yl)amino)-3-methoxyphenyl)piperidin-4-yl)piperazin-1-yl)-4-oxobutyl)amino)-2-(2,6-dioxopiperidin-3-yl)isoindoline-1,3-dione]",2.9 ± 1.5 nM,–
–,–,–,1 to 50 nM,1 to 10 nM,–,"CCc1cc2c(cc1N1CCN(C(=O)CNc3cccc4c3C(=O)N(C3CCC(=O)NC3=O)C4=O)CC1)C(C)(C)c1[nH]c3cc(C#N)ccc3c1C2=O (centres unmarked) [SIAIS164028, 8-(4-((2-(2,6-dioxopiperidin-3-yl)-1,3-dioxoisoindolin-4-yl)glycyl)piperazin-1-yl)-9-ethyl-6,6-dimethyl-11-oxo-6,11-dihydro-5H-benzo[b]carbazole-3-carbonitrile]",–,19.7 nM
–,–,–,100 to 500 nM,20 to 100 nM,–,"COc1cc(N2CCC(N3CCN(C(=O)CCOCCOCCC(=O)N[C@H](C(=O)N4C[C@H](O)C[C@H]4C(=O)NCc4ccc(-c5scnc5C)cc4)C(C)(C)C)CC3)CC2)ccc1Nc1ncc(Cl)c(Nc2ccccc2P(C)(C)=O)n1 [SIAIS164032, (2S,4R)-1-((S)-2-(3-(2-(3-(4-(1-(4-((5-chloro-4-((2-(dimethylphosphoryl)phenyl)amino)pyrimidin-2-yl)amino)-3-methoxyphenyl)piperidin-4-yl)piperazin-1-yl)-3-oxopropoxy)ethoxy)propanamido)-3,3-dimethylbutanoyl)-4-hydroxy-N-(4-(4-methylthiazol-5-yl)benzyl)pyrrolidine-2-carboxamide]",54.5 ± 31.2 nM,–
–,–,–,100 to 500 nM,100 to 500 nM,–,"COc1cc(N2CCC(N3CCN(C(=O)CCOCCOCCOCCC(=O)N[C@H](C(=O)N4C[C@H](O)C[C@H]4C(=O)NCc4ccc(-c5scnc5C)cc4)C(C)(C)C)CC3)CC2)ccc1Nc1ncc(Cl)c(Nc2ccccc2P(C)(C)=O)n1 [SIAIS164033, (2S,4R)-1-((S)-2-(tert-butyl)-16-(4-(1-(4-((5-chloro-4-((2-(dimethylphosphoryl)phenyl)amino)pyrimidin-2-yl)amino)-3-methoxyphenyl)piperidin-4-yl)piperazin-1-yl)-4,16-dioxo-7,10,13-trioxa-3-azahexadecanoyl)-4-hydroxy-N-(4-(4-methylthiazol-5-yl)benzyl)pyrrolidine-2-carboxamide]",50.1 ± 34.9 nM,–
–,–,–,–,20 to 100 nM,–,"COc1cc(N2CCN(C(=O)CCCC(=O)N[C@H](C(=O)N3C[C@H](O)C[C@H]3C(=O)NCc3ccc(-c4scnc4C)cc3)C(C)(C)C)CC2)ccc1Nc1ncc(Cl)c(Nc2ccccc2P(C)(C)=O)n1 [SIAIS1197147, (2S,4R)-1-((S)-2-(5-(4-(4-((5-chloro-4-((2-(dimethylphosphoryl)phenyl)amino)pyrimidin-2-yl)amino)-3-methoxyphenyl)piperazin-1-yl)-5-oxopentanamido)-3,3-dimethylbutanoyl)-4-hydroxy-N-(4-(4-methylthiazol-5-yl)benzyl)pyrrolidine-2-carboxamide]",14.2 ± 8.2 nM,–
–,–,–,–,20 to 100 nM,–,"COc1cc(N2CCN(C(=O)CCCCC(=O)N[C@H](C(=O)N3C[C@H](O)C[C@H]3C(=O)NCc3ccc(-c4scnc4C)cc3)C(C)(C)C)CC2)ccc1Nc1ncc(Cl)c(Nc2ccccc2P(C)(C)=O)n1 [SIAIS1197149, (2S,4R)-1-((S)-2-(6-(4-(4-((5-chloro-4-((2-(dimethylphosphoryl)phenyl)amino)pyrimidin-2-yl)amino)-3-methoxyphenyl)piperazin-1-yl)-6-oxohexanamido)-3,3-dimethylbutanoyl)-4-hydroxy-N-(4-(4-methylthiazol-5-yl)benzyl)pyrrolidine-2-carboxamide]",8.2 ± 3.9 nM,–
–,–,–,–,20 to 100 nM,–,"COc1cc(N2CCN(C(=O)CCCCCC(=O)N[C@H](C(=O)N3C[C@H](O)C[C@H]3C(=O)NCc3ccc(-c4scnc4C)cc3)C(C)(C)C)CC2)ccc1Nc1ncc(Cl)c(Nc2ccccc2P(C)(C)=O)n1 [SIAIS1197151, (2S,4R)-1-((S)-2-(7-(4-(4-((5-chloro-4-((2-(dimethylphosphoryl)phenyl)amino)pyrimidin-2-yl)amino)-3-methoxyphenyl)piperazin-1-yl)-7-oxoheptanamido)-3,3-dimethylbutanoyl)-4-hydroxy-N-(4-(4-methylthiazol-5-yl)benzyl)pyrrolidine-2-carboxamide]",16.7 ± 7.3 nM,–
